One test addresses T1, human ACC1 (Homo sapiens, UniProt Q13085).
T1 construct: His6 (from vector pFAST-BacHTc); made in house; host or cells: SF-9 insect cells, recombinant baculovirus BAC-ACC1
Kind of test: ACC1 inhibitory activity (malachite green). It is filed as biochemical. The conditions noted are these: test compound 10 μM; for inhibition at 10 µM: read-out: ACC1 10 μM inhibitory rate (%). A digest of the protocol:
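His-tagged human ACC1 from baculovirus-infected Sf9 cells was Ni-NTA purified, diluted to 8 μg/ml, and preincubated with compound for 60 min at 30 °C in HEPES pH 7.5 buffer with MgCl2, citrate, DTT and BSA. Substrate solution (50 mM KHCO3, 200 μM ATP, 200 μM acetyl-CoA) was added for 20 min at 30 °C. Phosphate was read by malachite green at 620 nm against no-compound and no-acetyl-CoA controls.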

For another test, the target named is T2, human ACC2 (Nd) (Homo sapiens, UniProt O00763).
T2 construct: His6 (from vector pFAST-BacHTa); made in house; host or cells: SF-9 insect cells, recombinant baculovirus BAC-ACC2 (Nd)
T2 sequence (O00763 117-2458 limits assumed): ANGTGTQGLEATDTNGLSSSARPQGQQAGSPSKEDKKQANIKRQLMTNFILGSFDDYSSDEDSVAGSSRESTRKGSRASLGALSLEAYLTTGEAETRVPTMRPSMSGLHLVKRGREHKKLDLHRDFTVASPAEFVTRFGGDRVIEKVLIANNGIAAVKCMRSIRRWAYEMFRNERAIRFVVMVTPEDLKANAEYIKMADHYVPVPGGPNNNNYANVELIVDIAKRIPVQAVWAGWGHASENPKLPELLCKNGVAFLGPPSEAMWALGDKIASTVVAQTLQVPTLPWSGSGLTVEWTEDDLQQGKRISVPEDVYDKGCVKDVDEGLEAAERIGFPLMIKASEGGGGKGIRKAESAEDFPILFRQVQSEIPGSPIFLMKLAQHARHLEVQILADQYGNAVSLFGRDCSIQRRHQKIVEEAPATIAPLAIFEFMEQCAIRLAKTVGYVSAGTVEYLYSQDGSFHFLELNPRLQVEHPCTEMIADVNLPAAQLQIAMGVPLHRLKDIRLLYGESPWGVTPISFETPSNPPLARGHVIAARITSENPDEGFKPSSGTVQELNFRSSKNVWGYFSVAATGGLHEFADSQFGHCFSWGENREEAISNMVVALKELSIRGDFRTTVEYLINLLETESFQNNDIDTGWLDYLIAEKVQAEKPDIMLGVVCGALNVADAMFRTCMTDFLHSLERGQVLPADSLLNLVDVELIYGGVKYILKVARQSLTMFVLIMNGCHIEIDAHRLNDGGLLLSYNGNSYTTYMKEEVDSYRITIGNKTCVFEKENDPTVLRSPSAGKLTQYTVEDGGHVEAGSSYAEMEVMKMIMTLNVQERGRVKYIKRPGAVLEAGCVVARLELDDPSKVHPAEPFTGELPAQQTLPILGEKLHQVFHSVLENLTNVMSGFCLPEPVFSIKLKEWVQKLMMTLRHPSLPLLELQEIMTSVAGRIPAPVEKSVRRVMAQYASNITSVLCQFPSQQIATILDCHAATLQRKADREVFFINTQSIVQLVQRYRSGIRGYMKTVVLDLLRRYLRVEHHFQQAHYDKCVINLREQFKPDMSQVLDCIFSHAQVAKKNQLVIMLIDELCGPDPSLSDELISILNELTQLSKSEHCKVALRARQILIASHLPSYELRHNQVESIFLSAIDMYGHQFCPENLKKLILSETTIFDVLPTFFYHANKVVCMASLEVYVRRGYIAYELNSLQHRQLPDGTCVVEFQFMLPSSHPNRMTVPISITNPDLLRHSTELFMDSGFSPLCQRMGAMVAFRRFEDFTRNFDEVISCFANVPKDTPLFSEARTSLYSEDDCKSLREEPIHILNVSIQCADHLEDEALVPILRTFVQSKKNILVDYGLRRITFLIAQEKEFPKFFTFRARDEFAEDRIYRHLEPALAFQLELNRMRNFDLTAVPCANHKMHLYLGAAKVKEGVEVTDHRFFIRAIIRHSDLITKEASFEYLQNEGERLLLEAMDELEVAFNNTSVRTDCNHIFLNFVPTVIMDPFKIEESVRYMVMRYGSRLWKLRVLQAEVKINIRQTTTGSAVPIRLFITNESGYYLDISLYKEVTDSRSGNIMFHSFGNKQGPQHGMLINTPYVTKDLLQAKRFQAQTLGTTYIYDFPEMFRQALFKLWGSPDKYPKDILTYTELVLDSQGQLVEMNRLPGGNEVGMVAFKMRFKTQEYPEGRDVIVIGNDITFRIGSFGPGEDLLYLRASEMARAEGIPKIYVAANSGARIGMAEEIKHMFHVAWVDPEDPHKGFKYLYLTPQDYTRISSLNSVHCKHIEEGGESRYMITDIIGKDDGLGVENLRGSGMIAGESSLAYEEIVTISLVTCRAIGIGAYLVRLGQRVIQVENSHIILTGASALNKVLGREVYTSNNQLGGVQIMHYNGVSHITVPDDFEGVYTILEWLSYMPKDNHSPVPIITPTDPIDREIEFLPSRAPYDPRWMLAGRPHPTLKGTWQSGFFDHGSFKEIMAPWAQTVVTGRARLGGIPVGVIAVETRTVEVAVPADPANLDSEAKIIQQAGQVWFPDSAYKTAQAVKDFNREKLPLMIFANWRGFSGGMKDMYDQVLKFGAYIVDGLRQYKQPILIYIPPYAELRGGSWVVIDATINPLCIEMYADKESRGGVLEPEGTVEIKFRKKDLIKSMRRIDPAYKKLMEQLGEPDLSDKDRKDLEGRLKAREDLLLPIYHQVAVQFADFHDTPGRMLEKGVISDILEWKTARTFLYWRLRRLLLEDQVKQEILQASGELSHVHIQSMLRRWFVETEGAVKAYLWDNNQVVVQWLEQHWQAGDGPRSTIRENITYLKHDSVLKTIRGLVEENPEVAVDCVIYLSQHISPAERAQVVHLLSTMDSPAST
Briefly: ACC2 inhibitory activity (malachite green). Format: biochemical. The conditions noted are these: test compound 10 μM; for inhibition at 10 µM: read-out: ACC2 10 μM inhibitory rate (%). Summed up: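 Enzyme: N-terminally truncated human ACC2 lacking the mitochondrial targeting sequence, His-tagged, expressed in baculovirus-infected Sf9 cells and Ni-NTA purified. Working dilution 6.4 μg/ml in 50 mM HEPES pH 7.5, 10 mM MgCl2, 10 mM tripotassium citrate, 2 mM DTT, 0.75 mg/ml fatty-acid-free BSA. Test compound in DMSO.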

The text below walks through data of patent US8501804B2, “Bicyclic compound” (Takeda Pharmaceutical Company Limited, priority 2008, dated 2013).

Take `CC(=O)NC(C)c1cc2ccc(C#Cc3ccc(OCC4CC4)nc3)cc2o1` (centres unmarked) [Example 138, N-[1-(6-{[6-(cyclopropylmethoxy)pyridin-3-yl]ethynyl}-1-benzofuran-2-yl)ethyl]acetamide]: the inhibition at 10 µM was determined as 22% on human ACC1 and 70% on human ACC2 (Nd).
With `CCOc1ccc(COc2ccc3oc(C(C)NC(C)=O)cc3c2)cc1` (centres unmarked) [Example 27, optically active forms (two kinds) of N-(1-{5-[(4-ethoxybenzyl)oxy]-1-benzofuran-2-yl}ethyl)acetamide], the “ACC1 10 μM inhibitory rate (%)” value at human ACC1 amounted to 18%. The “ACC2 10 μM inhibitory rate (%)” value at human ACC2 (Nd) was determined as 76%.
For `CCOc1ccc(CCc2ccc3cc(C(C)NC(C)=O)oc3n2)cc1` (centres unmarked) [Example 123, N-(1-{6-[2-(4-ethoxyphenyl)ethyl]furo[2,3-b]pyridin-2-yl}ethyl)acetamide], the inhibition at 10 µM at human ACC1 is 8%; at human ACC2 (Nd), 78%.
With `CC(=O)N[C@H](C)[C@H]1Cc2ccc(CCc3ccc(OCC4CC4)cc3)cc2O1` (racemic) [Example 121, 1:1 mixture of N-{(1R)-1-[(2R)-6-{2-[4-(cyclopropylmethoxy)phenyl]ethyl}-2,3-dihydro-1-benzofuran-2-yl]ethyl}acetamide and N-{(1S)-1-[(2S)-6-{2-[4-(cyclopropylmethoxy)phenyl]ethyl}-2,3-dihydro-1-benzofuran-2-yl]ethyl}acetamide], the inhibition at 10 µM at human ACC1 was 35%; on human ACC2 (Nd), 73%.
`CCOc1ccc(CCc2ccc3cc(C(C)Nc4ccon4)oc3c2)cc1` (centres unmarked) [Example 124, N-(1-{6-[2-(4-ethoxyphenyl)ethyl]-1-benzofuran-2-yl}ethyl)isoxazol-3-amine]: the inhibition at 10 µM at human ACC1 was found to be 16%; on human ACC2 (Nd), 81%.
The corresponding values for `CCCOc1ccc(CCc2ccc3cc(C(C)NC(C)=O)oc3c2)cc1` (centres unmarked) [Example 32, N-(1-{6-[2-(4-propoxyphenyl)ethyl]-1-benzofuran-2-yl}ethyl)acetamide] are 36% and 84%.
With `CCCOc1ccc(CCc2ccc3cc(C(C)NC(C)=O)oc3c2)cc1` (centres unmarked) [Example 47, optically active forms (two kinds) of N-(1-{6-[2-(4-propoxyphenyl)ethyl]-1-benzofuran-2-yl}ethyl)acetamide], the “ACC1 10 μM inhibitory rate (%)” value on human ACC1 is 37%. In addition, the “ACC2 10 μM inhibitory rate (%)” value at human ACC2 (Nd) was determined as 91%.
With `CCCCOc1ccc(CCc2ccc3cc(C(C)NC(C)=O)oc3c2)cc1` (centres unmarked) [Example 189 (retention time shorter)], the “ACC1 10 μM inhibitory rate (%)” value on human ACC1 turned out to be 37%. In addition, the “ACC2 10 μM inhibitory rate (%)” value at human ACC2 (Nd) was determined as 77%.
As for `CC(=O)N[C@H](C)[C@H]1Cc2ccc(C#Cc3ccc(OCC4CC4)cc3)cc2O1` (racemic) [Example 111, 1:1 mixture of N-{(1R)-1-[(2R)-6-{[4-(cyclopropylmethoxy)phenyl]ethynyl}-2,3-dihydro-1-benzofuran-2-yl]ethyl}acetamide and N-{(1S)-1-[(2S)-6-[([4-(cyclopropylmethoxy)phenyl]ethynyl]-2,3-dihydro-1-benzofuran-2-yl]ethyl}acetamide], the values for the inhibition at 10 µM on human ACC1 and on human ACC2 (Nd) were 30% and 78%, respectively.
In the case of `CCOc1ccc(COc2ccc3cc(C(C)NC(C)=O)sc3c2)cc1` (centres unmarked) [Example 19, N-(1-{6-[(4-ethoxybenzyl)oxy]-1-benzothiophen-2-yl}ethyl)acetamide], the inhibition at 10 µM is 24% on human ACC1 and 78% at human ACC2 (Nd).
The corresponding values for `CC(=O)NC(C)c1cc2cc(OCc3ccc(OCC4CC4)cc3Cl)ccc2o1` (centres unmarked) [Example 134 (retention time longer), N-[1-(5-{[2-chloro-4-(cyclopropylmethoxy)benzyl]oxy}-1-benzofuran-2-yl)ethyl]acetamide] are 33% and 55%.
The corresponding values for `CSCCOc1ccc(CCc2ccc3cc(C(C)NC(C)=O)oc3c2)cc1` (centres unmarked) [Example 169, N-{1-[6-(2-{4-[2-(methylsulfanyl)ethoxy]phenyl}ethyl)-1-benzofuran-2-yl]ethyl}acetamide] are 23% and 75%.
The like results for `CC(=O)NC(C)c1cc2ccc(CCc3ccc4c(c3)C(C)(C)CO4)cc2o1` (centres unmarked) [Example 152, N-(1-{6-[2-(3,3-dimethyl-2,3-dihydro-1-benzofuran-5-yl)ethyl]-1-benzofuran-2-yl}ethyl)acetamide] were, in that order, 39% and 78%.
